From paper PMC4476799, “Englerin A Agonizes the TRPC4/C5 Cation Channels to Inhibit Tumor Cell Line Proliferation” (PLoS ONE, 2015)
pEC50, pIC50: −log10 of the molar value. Where two headings read alike, the source gives them in different places.

Tested on: cancer cell lines from the cancer cell line encyclopedia (CCLE)
Assay: Cell line profiling (CLiP) proliferation experiment
Assay type: cell-based
Set-up: ACTIVITY_AREA: scale not given here; AMAX: unit not given here
Details: for pIC50: read-out: Crossing Point; for pEC50: read-out: Inflection Point
Method: Compound profiling experiment and data analysis was performed as previously described. Data was imported and plotted using the Tibco Spotfire DXP application. Lines were categorized as sensitive, intermediate and refractory as follows: Amax<-40 & Inflection Point <2 ~ Sensitive, Amax>-20 & Inflection Point >10 ~ Refractory, all else were called Intermediate. Cancer Cell line HG-U133 Plus 2 data was processed and normalized as described. […] Five sets of refractory cell lines were generated from the pool of refractory cell lines trying to match the lineage composition of the set of sensitive cell lines. The limma package was used as previously described to perform the statistical comparison.

[1] = Homo sapiens, ZR-75-30, ZR-75-30 cell line, breast, ductal_carcinoma
[2] = KYO1, KYO-1 (haematopoietic_and_lymphoid_tissue)
[3] = LP-1 (haematopoietic_and_lymphoid_tissue)
[4] = Loucy (haematopoietic_and_lymphoid_tissue)
[5] = MOLM16, cell line MOLM-16 (haematopoietic_and_lymphoid_tissue)
[6] = NCI-H1869, lung, squamous_cell_carcinoma
[7] = NCI-H2073, NCI-H2073, lung, adenocarcinoma
[8] = OCI-M1, OCI-M1, haematopoietic_and_lymphoid_tissue, acute_myeloid_leukaemia
[9] = PaTuÂ 8988s, cell line PA-TU-8988S
[10] = SH-10-TC, cell line SH-10-TC, stomach
[11] = SNU878, cell line SNU-878, liver, hepatocellular_carcinoma
[12] = SUP-M2, SUP-M2 (haematopoietic_and_lymphoid_tissue, anaplastic_large_cell_lymphoma)
[13] = T24 (urinary_tract, transitional_cell_carcinoma)
[14] = T84 (large_intestine, adenocarcinoma)
[15] = TE-1 (oesophagus, squamous_cell_carcinoma)
[16] = TEN (endometrium, clear_cell_carcinoma)
[17] = TT2609-C02 (thyroid, follicular_carcinoma)
[18] = U266B1 (haematopoietic_and_lymphoid_tissue, plasma_cell_myeloma)

CC(C)[C@@]12C[C@@H](O)[C@@](C)(O1)[C@@H]1CC[C@@H](C)[C@H]1[C@@H]2OC(=O)/C=C/c1ccccc1 [Englerin B]
4.63: pIC50 [9] | pEC50 [9]
4.80: pIC50 (KASUMI-2) | pIC50 (KASUMI-2 cells) | pIC50 (KMM-1, KMM-1) | pEC50 (Kelly) | pEC50 [18]
4.92: pEC50 [2] | pEC50 (KYO1, KYO-1 cells) | pEC50 (RCH-ACV cells) | pEC50 (TE 617.T (soft_tissue, NS)) | pEC50 (TE 617.T cells)
4.62: pIC50 [7] | pIC50 (TE-6 (oesophagus, squamous_cell_carcinoma))
5.30: pEC50 [13]
INTERMEDIATE: RESPONSE (UACC-62 cell line, skin, NS) | RESPONSE (UACC-257 (skin, NS))
5.53: pEC50 [6] | pEC50 (NCI-H1869 cells)
4.58: pEC50 (K029AX) | pEC50 (PL-21, PL-21 cells) | pEC50 (PL-21, cell line PL-21)
4.81: pIC50 (KMS-26, KMS-26) | pIC50 (Kelly)
4.88: pEC50 (RKO (large_intestine)) | pEC50 [16]
4.54: pIC50 (JHOM-1) | pEC50 (JHOM-1)
4.95: pIC50 (NCI-H1781, cell line NCI-H1781 (lung)) | pEC50 [10]
4.60: pIC50 (TC-71, TC-71 (bone, NS))
4.85: pEC50 (Ki-JK)
4.56: pIC50 [11] | pEC50 [11]
4.82: pIC50 (JHUEM-2) | pIC50 (JHUEM-2 cells) | pIC50 [5] | pEC50 [5]
4.64: pEC50 (KP-N-SI9s) | pEC50 (LC-1/sq-SF (lung))
-80.26: AMAX (UACC-257 (skin, NS))
41.15: ACTIVITY_AREA (UACC-62 cell line, skin, NS)
4.87: pIC50 [4] | pIC50 (NCI-H2023, NCI-H2023, lung, adenocarcinoma) | pIC50 [8]
4.84: pIC50 (Ki-JK (haematopoietic_and_lymphoid_tissue)) | pIC50 (Ki-JK) | pEC50 [17] | pEC50 (TT2609-C02 cells)
5.45: pIC50 (ONCO-DG-1, cell line ONCO-DG-1)
4.70: pIC50 (KPL-1, KPL-1) | pIC50 (LMSU (stomach))
4.79: pEC50 (KURAMOCHI (ovary))
4.67: pIC50 (Mono-Mac-1, cell line MONO-MAC-1 (haematopoietic_and_lymphoid_tissue))
5.18: pIC50 (NCI-H1568, cell line NCI-H1568 (lung))
4.53: pEC50 [1] | pIC50 (KMS-28BM) | pIC50 (TE-5 (oesophagus, squamous_cell_carcinoma))
4.86: pIC50 (JHH7, JHH-7)
4.75: pIC50 (Karpas-620, KARPAS-620) | pEC50 (Karpas-620, KARPAS-620) | pEC50 (OUMS-23, OUMS-23 cells) | pEC50 (OUMS-23, cell line OUMS-23) | pEC50 (RERF-LC-AI cells)
4.93: pEC50 [8] | pEC50 (OCI-M1, OCI-M1 cells)
4.73: pIC50 [3] | pEC50 [3]
31.33: ACTIVITY_AREA (UACC-257 (skin, NS))
4.71: pIC50 (KHM-1B) | pIC50 [2]
4.61: pIC50 (NCI-H2172, NCI-H2172, lung, non_small_cell_carcinoma)
4.98: pEC50 (KASUMI-2) | pEC50 (KASUMI-2 cells)
4.69: pEC50 (Mel202, cell line Mel202 (eye)) | pEC50 [7]
4.77: pEC50 (KHM-1B, KHM-1B cells) | pEC50 (KHM-1B) | pIC50 (NCI-H841, NCI-H841, lung, small_cell_carcinoma)
< 4.52: pIC50 [1] | pIC50 (Hs766T, cell line Hs 766T, pancreas) | pIC50 (Hs766T, cell line Hs 766T) | pIC50 (Hs 940.T cells) | pIC50 (IGR-39, cell line IGR-39, skin) | pIC50 (IGR-39, cell line IGR-39) | pIC50 (JHH-2, JHH-2) | pIC50 (JHH-2, cell line JHH-2) | pIC50 (K029AX (skin)) | pIC50 (K029AX) | pIC50 (KMRC-1, KMRC-1) | pIC50 (KMRC-1, KMRC-1 cells) | pIC50 (KMRC-2) | pIC50 (KMRC-2 cells) | pIC50 (KMRC-20) | pIC50 (KMRC-20 cells) | pIC50 (KP-1NL (pancreas)) | pIC50 (KP-1NL) | pIC50 (KP-N-YN (autonomic_ganglia)) | pIC50 (KP-N-YN) | pIC50 (L3.3 (pancreas)) | pIC50 (LC-1/sq-SF (lung)) | pIC50 (LK-2 (lung)) | pIC50 (LP-6 (soft_tissue)) | pIC50 (Li-7 (liver)) | pIC50 (MB 157 (breast)) | pIC50 (MCAS (ovary)) | pIC50 (MDST8, MDST8 (large_intestine)) | pIC50 (Mel202, cell line Mel202 (eye)) | pIC50 (Mel202, cell line Mel202) | pIC50 (NCI-H196, NCI-H196, lung, small_cell_carcinoma) | pIC50 (NCI-H196, cell line NCI-H196) | pIC50 [6] | pIC50 (NCI-H1869 cells) | pIC50 (NCI-H2106, lung, non_small_cell_carcinoma) | pIC50 (NCI-H2330, lung, small_cell_carcinoma) | pIC50 (OC 316, ovary, adenocarcinoma) | pIC50 (OMM2.3 (eye)) | pIC50 (OMM2.5 cells) | pIC50 (OV7, OV7 cells) | pIC50 (OV56, OV56 cells) | pIC50 (OV56, cell line OV56) | pIC50 (RCC10RGB cells) | pIC50 (RERF-LC-AI cells) | pIC50 (RKN (soft_tissue)) | pIC50 (RMUG-S (ovary)) | pIC50 (SH-4 (skin)) | pIC50 (SH-10-TC, SH-10-TC (stomach)) | pIC50 [10] | pIC50 (SNG-M (endometrium)) | pIC50 (SNU-119 (ovary)) | pIC50 (SNU-216, SNU-216 (stomach)) | pIC50 (SNU-216, cell line SNU-216, stomach) | pIC50 (SNU-738 (central_nervous_system)) | pIC50 (SNU-C5 (large_intestine)) | pIC50 (SNU-C5 (large_intestine, adenocarcinoma)) | pIC50 (SR-786, SR-786 (haematopoietic_and_lymphoid_tissue)) | pIC50 (SR-786, SR-786 (haematopoietic_and_lymphoid_tissue, anaplastic_large_cell_lymphoma)) | pIC50 (SUM52, SUM-52 (breast)) | pIC50 (SUM52, SUM-52 (breast, NS)) | pIC50 (SUM52PE, SUM52PE (breast)) | pIC50 (SUM52PE, SUM52PE (breast, NS)) | pIC50 (SW1271, SW 1271 (lung)) | pIC50 (SW1271, SW 1271 (lung, small_cell_carcinoma)) | pIC50 (T24 (urinary_tract)) | pIC50 [13] | pIC50 (T778 (soft_tissue)) | pIC50 (T778 (soft_tissue, well_differentiated)) | pIC50 (TEN (endometrium)) | pIC50 [16] | pIC50 (U266B1 (haematopoietic_and_lymphoid_tissue)) | pIC50 [18]
4.74: pIC50 [12] | pEC50 [12] | pIC50 (SUP-M2, SUP-M2 cells) | pEC50 (SUP-M2, SUP-M2 cells)
4.90: pIC50 (KYM-1 (soft_tissue))
4.65: pIC50 [17]
4.83: pEC50 (MB 157 (breast)) | pIC50 (OUMS-23, cell line OUMS-23)
4.66: pIC50 (KP-N-SI9s)
4.68: pIC50 (KURAMOCHI (ovary)) | pIC50 (PL-21, cell line PL-21)
5.00: pIC50 (Ri-1, RI-1 cells) | pEC50 (Ri-1, RI-1 cells)
4.57: pIC50 (KO52)
5.02: pEC50 [14]
-44.29: AMAX (UACC-62 cell line, skin, NS)
4.72: pIC50 [15]
4.55: pIC50 (KMS-27, KMS-27) | pEC50 (KMS-27, KMS-27) | pIC50 (KMS-27, KMS-27 cells) | pEC50 (KMS-27, KMS-27 cells) | pIC50 (KMS-34, KMS-34) | pIC50 (KS-1) | pIC50 [14]
4.78: pEC50 (KMS-26, KMS-26) | pEC50 (KMS-26, KMS-26 cells) | pIC50 (TE 617.T (soft_tissue, NS)) | pEC50 [15] | pIC50 (TF-1 (haematopoietic_and_lymphoid_tissue, acute_myeloid_leukaemia))
6.85: pEC50 (KMRC-20) | pEC50 (KMRC-20 cells)
4.91: pIC50 (JHH-5) | pEC50 [4]
